In the supplement of paper PMC6470124:

Columns and labels:
[1] = absolute recovery over vacuum-assisted evaporative concentration; higher = better recovery; settings: enrichment method: VEC
In short: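 Water samples (influent 6 mL, effluent 15 mL, surface and nanopure water 60 mL) were spiked with standards before concentration, after concentration or not at all, at 200 ng/L (nanopure/surface) or 1000 ng/L (wastewater), with class- and compound-specific adjustments. They were evaporated at 55 °C and 20 mbar to about 0.3 mL, brought to 0.4 mL and centrifuged. Internal standards were added afterwards and samples were analysed by LC-HRMS/MS. Absolute recovery was (response ratio pre − unspiked)/(post − unspiked) × 100, using averages of ≥ 2 replicates.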

[2] = absolute recovery over mixed-bed multilayer solid-phase extraction; higher = better recovery; settings: enrichment method: SPE
In short: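 Wastewater (100–250 mL, adjusted to pH 6.5 and glass-fibre filtered) or 1000 mL unfiltered nanopure water was loaded on a three-layer mixed-bed cartridge and eluted with basic then acidic ethyl acetate/methanol. Standards were spiked before extraction, after it, or not at all, at 200 ng/L (water) or 1000 ng/L (wastewater), with class exceptions. Internal standards were added afterwards, then LC-HRMS/MS ran in both ionisation modes. Absolute recovery compares background-corrected response ratios of pre- versus post-spiked samples, averaged over at least two replicates.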

[3] = LC retention time (Atlantis T3, 5-95% MeOH gradient, 0.1% formic acid); higher = more retained / less polar
In short: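 Retention times were recorded for reference standards (purity ≥ 95%) on a polar reversed-phase C18 column (Atlantis T3, 3 × 150 mm, 3 μm) at 0.3 mL/min. Elution used water and methanol, each with 0.1% formic acid, in a gradient from 5 to 95% methanol over 17.5 min. Detection was by high-resolution tandem mass spectrometry on a QExactive Plus, with positive and negative electrospray in separate runs. Peaks were found and integrated in TraceFinder (5 ppm tolerance, at least three points per peak) and then checked by hand.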

| SMILES | absolute recovery ([1]; wastewater effluent) [%] | absolute recovery ([1]; wastewater influent) [%] | absolute recovery ([2]; nanopure water) [%] | absolute recovery ([2]; surface water) [%] | absolute recovery ([2]; wastewater effluent) [%] | absolute recovery ([2]; wastewater influent) [%] | LC retention time [3] [min] |
| --- | --- | --- | --- | --- | --- | --- | --- |
| C[NH+](C)CCCC1(c2ccc(F)cc2)OCc2cc(C#N)ccc21 (stereo unspecified) [Citalopram] | 104 | 100 | 94.1 | 96.1 | 92.4 | 93.9 | 14.5 |
| CC(C)c1ccc(N)cc1 [4-Isopropylanilin] | 93.8 | 96.6 | 95.5 | 80.7 | 80.1 | 84.8 | 10.4 |
| Nc1ccc(C=Cc2ccc(N)cc2S(=O)(=O)[O-])c(S(=O)(=O)[O-])c1 [4-4-diamino-2,2-stilbenedisulfonic-acid] | 30 | – | 14.5 | 3.4 | 9.1 | 7.8 | 4.15 |
| NC(=O)c1c(Cl)cccc1Cl [2-6-Dichlorbenzamid] | 102 | 107 | 93.7 | 94.9 | 93.8 | 93.9 | 12.7 |
| COc1cccc(C2(O)CCCCC2C[N+](C)(C)[O-])c1 (stereo unspecified) [Tramadol-N-oxide] | 104 | 102 | 99.4 | 91.3 | 90.2 | 95 | 12.7 |
| N#CCNC(=O)c1cnccc1C(F)(F)F [Flonicamid] | 99.6 | 106 | 96.3 | 101 | 99.5 | 96 | 12.2 |
| COc1ccc2c3c1OC1C(O)CCC4C(C2)[NH+](C)CCC341 (stereo unspecified) [Dihydrocodeine] | 108 | 100 | 98.5 | 107 | 94.1 | 97.7 | 9.1 |
| CCC(=O)OC(Cc1ccccc1)(c1ccccc1)C(C)C[NH+](C)C (stereo unspecified) [Propoxyphene] | 108 | 110 | 85.3 | 94.6 | 91.5 | 72.4 | 15.6 |
| CNC(=O)Oc1cccc2c1OC(C)(C)C2 [Carbofuran] | 83.9 | 96.7 | 91.7 | 91.3 | 94.7 | 93.5 | 17 |
| N#Cc1nn(-c2c(Cl)cc(C(F)(F)F)cc2Cl)c(N)c1S(=O)C(F)(F)F (stereo unspecified) [Fipronil] | 103 | 98.5 | 99 | 95.7 | 94.2 | 88.5 | 20.4 |
| CCC(=[NH+]OCC=CCl)C1=C([O-])CC(C2CCOCC2)CC1=O (stereo unspecified) [Tepraloxydim] | 114 | 102 | 98.7 | 90.1 | 92.9 | – | 19 |
| CC(C)N(C(=O)CCl)c1ccccc1 [Propachlor] | 83.8 | 76.9 | 84.3 | 87 | 81.1 | 93.3 | 18.4 |
| Cn1c(=O)c2c(ncn2C)n(C)c1=O [Coffein] | 99.7 | – | 96.4 | – | 94.5 | – | 12.5 |
| CNC(=O)CSP(=S)(OC)OC [Dimethoat] | 102 | 103 | 93.4 | 90.7 | 93 | 92.3 | 14.4 |
| C[NH2+]C(C)C(=O)c1ccc(C)cc1 (stereo unspecified) [Mephedron (=4-Methylmethcathinon)] | 76.7 | 71.4 | 62.3 | 66.2 | 62.8 | 72.7 | 11.4 |
| CCOCCN(C(=O)CCl)C(=C(C)C)c1ccccc1 [Pethoxamid] | 87.2 | 92.5 | 95.5 | 85.7 | 86.7 | 99.6 | 20.3 |

| SMILES | absolute recovery ([1]; wastewater effluent) [%] | absolute recovery ([1]; wastewater influent) [%] | absolute recovery ([2]; nanopure water) [%] | absolute recovery ([2]; surface water) [%] | absolute recovery ([2]; wastewater effluent) [%] | absolute recovery ([2]; wastewater influent) [%] | LC retention time [3] [min] |
| --- | --- | --- | --- | --- | --- | --- | --- |
| CC(C)N1C(=O)c2ccccc2[N-]S1(=O)=O [Bentazon] | 105 | 101 | 97.3 | 97.5 | – | 93.1 | 17.8 |
| CC#Cc1cc(C)nc(Nc2ccccc2)n1 [Mepanipyrim] | 95.3 | 62.1 | 93.5 | 107 | 103 | 94.9 | 20.2 |
| CCOc1cc(Oc2ccc(C(F)(F)F)cc2Cl)ccc1[N+](=O)[O-] [Oxyfluorfen] | 87.1 | 92.7 | 93.8 | 83.9 | 82.2 | 108 | 21 |
| CC([NH3+])Cc1ccccc1 (stereo unspecified) [Amphetamin] | 97.8 | 85.5 | 97.7 | 85.5 | 87.4 | 91.8 | 10.4 |
| O=c1[nH]cc(F)c(=O)[nH]1 [5-Fluorouracil] | 79.1 | 69.1 | 5 | 7.7 | 7.4 | 9.3 | 5.37 |
| CCCCCCCCn1sc(Cl)c(Cl)c1=O [4-5-Dichloro-2-n-octyl-isothiazol-3(2H)-on (=DCOIT)] | 19.3 | – | 93 | 62.5 | 66.5 | 60.8 | 22.7 |
| CC(C)[NH2+]CC(O)COc1ccc(CC(N)=O)cc1 (stereo unspecified) [Atenolol] | 107 | 103 | 92.1 | 92.6 | 87.4 | 90.6 | 8.64 |
| CC(=O)OCC(=O)C1(O)C(C)CC2C3CCC4=CC(=O)C=CC4(C)C3(F)C(O)CC21C (stereo unspecified) [Betamethasone 21-acetate C] | 92.7 | 85.2 | 93.1 | 89.4 | 89 | 98.3 | 19.6 |
| COc1ccc2c(c1)c(CC(=O)OCC(=O)[O-])c(C)n2C(=O)c1ccc(Cl)cc1 [Acemetacin] | 97.8 | 99.4 | 76.1 | 59.7 | 75.6 | 116 | 21.4 |
| NC(=O)N=C1SCCN1Cc1ccc(Cl)nc1 [Thiacloprid-amide] | 106 | 104 | 109 | 108 | 104 | 96.3 | 13.2 |
| CON=C(C(=O)OC)c1ccccc1CON=C(C)c1cccc(C(F)(F)F)c1 [Trifloxystrobin] | 77.4 | 97.5 | – | 97.3 | 88.9 | 99.8 | 21.4 |
| O=C(NC(=O)c1c(F)cccc1F)Nc1ccc(Cl)cc1 [Diflubenzuron] | 112 | 147 | 101 | 138 | 114 | 67.9 | 20.5 |
| CN1CCN(C)C1=O [1-3-Dimethyl-2-imidazolidinon] | 96.5 | 104 | 26 | 29.7 | 29.2 | 56.1 | 10.1 |
| CN1C(=O)CCC1c1cccnc1 (stereo unspecified) [Cotinine] | 100 | – | 109 | 135 | 112 | – | 6.11 |
| NC(=O)N1c2ccccc2C=Cc2ccccc21 [Carbamazepin] | 104 | 98.2 | 99 | 97.8 | 93.5 | 93.2 | 17.6 |
| CC(C)Nc1nc(N)nc(O)n1 [Atrazin-desethyl-2-hydroxy] | 107 | 93.7 | 76.8 | 74.2 | 71.2 | 92.3 | 7.67 |

The next lines start with the values.

| absolute recovery ([1]; wastewater effluent) [%] | absolute recovery ([1]; wastewater influent) [%] | absolute recovery ([2]; nanopure water) [%] | absolute recovery ([2]; surface water) [%] | absolute recovery ([2]; wastewater effluent) [%] | absolute recovery ([2]; wastewater influent) [%] | LC retention time [3] [min] | SMILES |
| --- | --- | --- | --- | --- | --- | --- | --- |
| 103 | 112 | 80.5 | 83.7 | 83.5 | 99.6 | 13.2 | COCCOCCOCCOCCOC [Tetraglyme] |
| 105 | 98.6 | 70 | 86.7 | 81 | 78.4 | 22.5 | CC(C)OC(=O)C(C)(C)Oc1ccc(C(=O)c2ccc(Cl)cc2)cc1 [Fenofibrat] |
| 90.6 | 36.6 | 97.7 | 22 | 51.5 | 96.2 | 23.1 | CCC(=O)OC(OP(=O)(CCCCc1ccccc1)CC(=O)N1CC(C2CCCCC2)CC1C(=O)[O-])C(C)C (stereo unspecified) [Fosinopril] |
| 103 | 96.1 | 97.1 | 93.4 | 93.6 | 94.2 | 14.6 | CCCCc1[nH+]cc(C=C(Cc2cccs2)C(=O)[O-])n1Cc1ccc(C(=O)[O-])cc1 [Eprosartan] |
| 106 | 100 | 83.8 | 93.4 | 91.4 | 95.5 | 13.3 | Cc1cc(=O)n(-c2ccccc2)n1C [Phenazon (=Antipyrin)] |
| 105 | 114 | 70 | – | 1.9 | – | 7.16 | CC(Cn1cnc2c(N)ncnc21)OCP(=O)([O-])O (stereo unspecified) [Tenofovir] |
| 105 | 101 | 97 | 99.3 | 91.4 | 101 | 15.7 | CC(C)(C(=O)[O-])c1ccc(C(O)CCC[NH+]2CCC(C(O)(c3ccccc3)c3ccccc3)CC2)cc1 (stereo unspecified) [Fexofenadin] |
| 105 | 91 | 87.7 | 95.3 | 89.4 | 84 | 15.1 | CCCCOc1ccc(OCCC[NH+]2CCOCC2)cc1 [Pramoxine] |
| 103 | 108 | 1.5 | – | – | – | 3.84 | C=CS(=O)(=O)[O-] [Vinylsulfonic-acid] |
| 99.2 | 103 | 92.4 | 91.2 | 94 | 95.1 | 18.4 | CCC(C)C(=O)OC1CC(O)C=C2C=CC(C)C(CCC(O)CC(O)CC(=O)[O-])C21 (stereo unspecified) [Pravastatin] |
| 105 | 100 | 96 | 73.3 | 93.5 | 102 | 17.8 | CC(C)N(C(=O)C(=O)[O-])c1ccccc1 [Propachlor-OXA] |
| 101 | 82.2 | 69.5 | 50.8 | 76.7 | 88.3 | 15.2 | CC1(C)C(=O)Oc2ccc(OS(C)(=O)=O)cc21 [Ethofumesat-2-keto] |
| 98 | 95.5 | 101 | 98.8 | 97 | 91.2 | 19 | CSc1nc(NC2CC2)nc(NC(C)(C)C)n1 [Irgarol] |
| 105 | 89 | 87.3 | 91.5 | 87.4 | 92.3 | 17.5 | [O-][n+]1nc(-n2ccnc2)nc2ccc(Cl)cc21 [Triazoxide] |
| 108 | 109 | 108 | 90.4 | 82 | 92.8 | 9.01 | C[NH2+]C(CC(C)C)C(=O)NC1C(=O)NC(CC(N)=O)C(=O)NC2C(=O)NC3C(=O)NC(C(=O)NC(C(=O)[O-])c4cc(O)cc(O)c4-c4cc3ccc4O)C(O)c3ccc(c(Cl)c3)Oc3cc2cc(c3OC2OC(CO)C(O)C(O)C2OC2CC(C)([NH3+])C(O)C(C)O2)Oc2ccc(cc2Cl)C1O (stereo unspecified) [Vancomycin] |
| 104 | 103 | 88.9 | 97 | 91.1 | 77.8 | 14.6 | C[NH+](C)CCOC(c1ccccc1)c1ccccc1 [Diphenhydramine] |
| 105 | 112 | 71.9 | 76.1 | 72.9 | 71.4 | 14.6 | CC([NH3+])C12CC3CC(CC(C3)C1)C2 (stereo unspecified) [Rimantadin] |
| 75.3 | 70.8 | 86.2 | – | 73.8 | 143 | 20.9 | CC(C)CC(C)(O)C#CC(C)(O)CC(C)C (stereo unspecified) [Surfynol-104A] |
| 26.4 | – | 82.7 | 93.3 | 103 | 62.5 | 20.6 | CCOC(=O)C1=NOC(c2ccccc2)(c2ccccc2)C1 [Isoxadifen-ethyl] |
| 104 | – | 95.8 | – | 29 | – | 14.3 | O=S(=O)([O-])NC1CCCCC1 [Cyclamat] |
| 103 | 98.5 | 94.9 | 92.4 | 88.6 | 92.9 | 14.5 | CCC1(c2ccccc2)C(=O)NCNC1=O [Primidon] |
